Experiments:
[1] = tested on: B16F10 melanoma cells in C57BL/6 mice; assay: Experimental B16F10 melanoma lung metastasis, nodule count; type: in vivo; conditions: for Lung nodules: day 21, mean ± SEM
From the text: Figure 6 Protective effects of Psd1 on a model of experimental lung metastasis in vivo. B16F10 mouse melanoma tumors were established by intravenous injection of 2.5 × 10^5 B16F10 cells into C57BL/6 mice. (A) After 21 days, mice from each experimental group were sacrificed, and the number of visible lung metastatic nodules was quantified. Treatment of the animals inoculated with melanoma cells plus Psd1 caused a dose-dependent reduction in the number of lung metastases. Black lines represent the mean ± SEM of two independent experiments analyzed by one-way ANOVA and Bonferroni’s multiple comparison test. **** p < 0.0001 B16F10 vs. phosphate buffer solution (PBS); **** p < 0.0001 B16F10 vs. Psd1 1 mg/kg; **** p < 0.0001 B16F10 vs. just Psd1 1 mg/kg (without B16F10 cells); *** p < 0.001 B16F10 vs. Psd1 3 mg/kg; * p < 0.05 B16F10 vs. Psd1 0.5 mg/kg. (B) Representative images of lung metastatic nodules from animals that received just PBS or B16F10 cells alone or together with 0.1 mg/kg or 1 mg/kg Psd1. Bar = 2 mm. (C) Animal weights were acquired every two days. Weight variation was calculated as (weight on that day (weight of the first day × 100 − 100)). Only the days with higher weight differences between animals injected with only B16F10 cells and those that received cells plus Psd1 or PBS alone are represented. All of the values represent the mean ± SEM of two independent experiments analyzed by two-way ANOVA. *** p < 0.001 B16F10 vs. PBS at […]; *** p < 0.001 B16F10 vs. Psd1 0.1 mg/kg at 9 weeks; ** p < 0.01 B16F10 vs. Psd1 0.1 mg/kg at 13 weeks; *** p < 0.001 B16F10 vs. Psd1 1 mg/kg at 9 and 13 weeks; ** p < 0.01 B16F10 vs. Psd1 1 mg/kg at 17 weeks; * p < 0.05 B16F10 vs. Psd1 1 mg/kg at 7 weeks; *** p < 0.001 B16F10 vs. Psd1 3 mg/kg at 7 and 9 weeks.
Eight-week-old C57BL/6 female mice (CEMIB, Campinas–Brasil) weighing approximately 20 g were individually marked and separated according to their experimental groups. These animals were kept in cages 20 cm × 35 cm × 15 cm (width × length × height) with free access to water and food under day and night cycles that lasted twelve hours with a controlled temperature (20–25 °C) in our own facilities. This study was approved by the Ethics Committee on the Use of Animals of Health Science Centre of the Federal University of Rio de Janeiro, Brazil (CEUA/CCS/UFRJ, CONCEA registered number 01200.001568/2013.87, approved protocol IBCCF 163 at 28 August 2012). All animals received humane care in compliance with the “Principles of Laboratory Animal Care” formulated by the National Society for Medical Research and the “Guide for the Care and Use of Laboratory Animals” prepared by the National Academy of Sciences, USA, and the National Council for Controlling Animal Experimentation, Ministry of Science, Technology and Innovation (CONCEA/MCTI), Brazil.
Mice were injected via the lateral tail vein with 100 µL of PBS only (137 mM NaCl, 2.7 mM KCl, 10 mM Na2HPO4, 2 mM KH2PO4, pH 7.4) (n = 17) or 100 µL of B16F10 cells (2.5 × 10^5 cells/animal suspended in DMEM) (n = 15). Other groups of animals were intravenously co-injected with a freshly prepared, in order to avoid B16F10 cells death, mix of B16F10 cells plus 0.1 mg/kg (n = 8), 0.5 mg/kg (n = 8), 1 mg/kg (n = 17), or 3 mg/kg Psd1 (n = 7).
(§1) Another group of animals received 1 mg/kg of Psd1 only (n = 9) to evaluate Psd1 toxicity. Twenty-one days later, the animals were anaesthetized and sacrificed, and the black lung melanoma nodules were counted and measured under a dissecting microscope (Zeiss AxioPhot fluorescence microscope (Carl-Zeiss, Oberkochen, Germany)).

[2] = tested on: A-431 (human epidermoid carcinoma) cells; assay: MTT cell viability, A-431 tumor cells; type: cell-based; conditions: 24 h, p < 0.001
[3] = tested on: R8 (rat lymphocyte) cells; assay: LDH release cell viability, healthy R8 cells; type: cell-based; conditions: 30 µM, 3 h (6 µM not tested)
B16F10 cells = assay: Flow cytometry-based apoptosis detection (sub-G0/G1 DNA content); type: cell-based, murine; conditions: 50 µM, 24 h, propidium iodide; control Sub-G1 4.4%
Procedure: Figure 2 Psd1 promotes B16F10 live cell membrane permeabilization as monitored by SYTOX Green fluorescence. (A) Psd1 untreated and hydrogen peroxide-treated B16F10 cells. (B) A total of 1.5 × 10^4 B16F10 cells were incubated with 3 or 50 µM Psd1 for 30 min. (C) 1.5 × 10^4 B16F10 cells were incubated with 50 µM Psd1 for 1 h. All experiments were performed at 37 °C. Nucleus staining is shown in green (SYTOXGreen), and mitochondria are shown in red (MitoTracker Red CMXRos). Images are shown at 20× magnification. […] (E) Psd1 induces apoptosis in B16F10 cells. B16F10 cells were treated with 50 µM Psd1 for 24 h and labeled with propidium iodide, and the DNA content was analyzed by flow cytometry for the sub-G0/G1 profile. At least two independent experiments were performed. TEXT PRINTED IN THE PICTURE: (E) Control: Sub-G1: 4.4% | (E) Psd1: Sub-G1: 60.6% (50μM)
B16F10 cells (4 × 10^5 cells) were treated with 50 μM Psd1 for 24 h. After treatment, the cells were trypsinized, centrifuged, and washed twice with phosphate-buffered saline (PBS). The cells were then stained with Nicoletti buffer (0.1% sodium citrate, 0.1% NP-40, 200 μg/mL RNase, and 50 μg/mL propidium iodide). Doublets and debris were identified and excluded. Analysis of the DNA content was performed by collecting 20,000 events using a BD FACSCalibur flow cytometer (BD Biosciences, San Jose, CA, USA). […]

C57BL/6 mice = assay: Toxicity observation in mice given Psd1 alone; type: in vivo
Procedure: as §1

Substance: Psd1: 46-amino acid residue plant defensin isolated from pea seeds, expressed in Pichia pastoris (PDB 1JKZ) (KTCEHLADTYRGVCFTNASCDDHCKNKAHLISGTCHNWKCFCTQNC)
- Number of lung nodules, result in words ([1]; 0.1 mg/kg i.v., day 21): not effective in reducing the number of nodules
- Size of lung nodules, result in words ([1]; 0.1 mg/kg i.v., day 21, data not shown): effective in reducing their size
- Lung nodules ([1]; 0.5 mg/kg i.v. co-injected with B16F10 cells, B16F10 only average 43 nodules, p < 0.05): 10.2 ± 2.6 nodules
- Decrease of number of pulmonary nodules ([1]; 0.5 mg/kg i.v., day 21): 75%
- Lung nodules in animals without B16F10 cells ([1]; 1.0 mg/kg Psd1 alone, i.v., day 21): did not present lung nodules
- Lung nodules ([1]; 1.0 mg/kg i.v. co-injected with B16F10 cells, p < 0.0001): 4.82 ± 1.88 nodules
- Decrease of number of pulmonary nodules ([1]; 1.0 mg/kg i.v., day 21): 88%
- Lung nodules ([1]; 3.0 mg/kg i.v. co-injected with B16F10 cells, p < 0.001): 0.14 ± 0.14 nodules
- Tumor development, result in words ([1]; 3.0 mg/kg i.v., day 21): completely abolished tumor development
- Lung metastasis nodules, result in words ([1]; i.v., above 0.5 mg/kg): completely inhibited the formation of B16F10 lung metastasis nodules
- Lowest dose with significant reduction of lung metastasis colonization ([1]; i.v., day 21, dose-dependent): 0.5 mg/kg
- A-431 growth, result in words (MTT) ([2]; 12.5 µM): decreased growth
- Maximum reduction of A-431 growth (MTT) ([2]; 50 µM): 20%
- R8 cell viability (LDH release) [3]: no alteration in cell viability
- Sub-G0/G1 (sub-G1) cells (B16F10 cells): 60.6%
- Inflammation in lung tissue, weight or vital signal losses (C57BL/6 mice; 1 mg/kg Psd1 alone, over 21 days): did not provoke inflammation in lung tissue or weight or vital signal losses over 21 days
- Behavior signals / mortality (C57BL/6 mice; Psd1 alone (1 mg/kg i.v.), vs PBS): did not present changes in important behavior signals, such as changes in locomotion, piloerection, diarrhea, or mortality

From article PMC7219108, “Pisum sativum Defensin 1 Eradicates Mouse Metastatic Lung Nodules from B16F10 Melanoma Cells” (International Journal of Molecular Sciences, 2020)
